This note sets out measurements from the supplement of paper PMC10307832.

Each structure is given as a SMILES string.

The test system of the first experiment is NCI-H1355. Briefly: relative viability (nuclei count vs DMSO), 5 days (fraction); higher = more cells survive. The following applies: first compound 6.325 µM. The essentials: (§1)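 A single step with final 0.05% Triton X-100, 1% formaldehyde and 1 ug/ml Hoechst fixed the cells and stained nuclei 5 days after treatment. Lung cancer cell lines in 1536-well plates had been treated by pin tool the day after seeding with one drug alone or a fixed anchor-drug dose plus five library-drug doses (not always all listed) in √10 steps, and nuclei were counted on 4× images. Relative viability is the ratio of nuclei in treated wells to nuclei in vehicle wells, taken as the median of duplicate plates.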
Turning to `COCC1(CO)C(=O)C2CCN1CC2` (stereo unspecified) [PRIMA-1MET] + NC(=O)Nc1cc(-c2cccc(F)c2)sc1C(=O)N[C@H]1CCCNC1 [AZD7762] (partner 0.2 µM), the relative viability came to 0.874.
For `COCC1(CO)C(=O)C2CCN1CC2` (stereo unspecified) [PRIMA-1MET] + Nc1nc2[nH]cc(CCc3ccc(C(=O)N[C@@H](CCC(=O)O)C(=O)O)cc3)c2c(=O)[nH]1 [Pemetrexed] (partner 0.2 µM), the relative viability turned out to be 1.01.
Still for that read-out and setting: the value for `COCC1(CO)C(=O)C2CCN1CC2` (stereo unspecified) [PRIMA-1MET] + CC(=O)Nc1cccc(-n2c(=O)n(C3CC3)c(=O)c3c(Nc4ccc(I)cc4F)n(C)c(=O)c(C)c32)c1 [Trametinib] (partner 0.02 µM) was 0.427.
`COCC1(CO)C(=O)C2CCN1CC2` (stereo unspecified) [PRIMA-1MET] + Nc1ncn([C@H]2C[C@H](O)[C@@H](CO)O2)c(=O)n1 [Decitabine] (partner 2 µM) yielded a relative viability of 0.329.

The experiment is the same for the next values; noted with them: first compound 20 µM.
Molecule `COCC1(CO)C(=O)C2CCN1CC2` (stereo unspecified) [PRIMA-1MET] + COc1cc2c(Oc3ccc(NC(=O)C4(C(=O)Nc5ccc(F)cc5)CC4)cc3F)ccnc2cc1OCCCN1CCOCC1 [Foretinib] (partner 0.25 µM) registered a relative viability of 0.956.
Same read-out and setting: the value for `COCC1(CO)C(=O)C2CCN1CC2` (stereo unspecified) [PRIMA-1MET] + NC(=O)Nc1cc(-c2cccc(F)c2)sc1C(=O)N[C@H]1CCCNC1 [AZD7762] (partner 0.2 µM) was 0.72; that for `COCC1(CO)C(=O)C2CCN1CC2` (stereo unspecified) [PRIMA-1MET] + Nc1nc2[nH]cc(CCc3ccc(C(=O)N[C@@H](CCC(=O)O)C(=O)O)cc3)c2c(=O)[nH]1 [Pemetrexed] (partner 0.2 µM) was 1.04.
For the molecule `COCC1(CO)C(=O)C2CCN1CC2` (stereo unspecified) [PRIMA-1MET] + CC(=O)Nc1cccc(-n2c(=O)n(C3CC3)c(=O)c3c(Nc4ccc(I)cc4F)n(C)c(=O)c(C)c32)c1 [Trametinib] (partner 0.02 µM), the relative viability stood at 0.428.
Molecule `COCC1(CO)C(=O)C2CCN1CC2` (stereo unspecified) [PRIMA-1MET] + Nc1ncn([C@H]2C[C@H](O)[C@@H](CO)O2)c(=O)n1 [Decitabine] (partner 2 µM) showed a relative viability of 0.323.

A further experiment has as its system HCC-827. The experiment is described as above. To be noted: first compound 0.2 µM. The essentials: as §1
The molecule `COCC1(CO)C(=O)C2CCN1CC2` (stereo unspecified) [PRIMA-1MET] + COc1cc2c(Oc3ccc(NC(=O)C4(C(=O)Nc5ccc(F)cc5)CC4)cc3F)ccnc2cc1OCCCN1CCOCC1 [Foretinib] (partner 0.25 µM) had a relative viability of 1.09.
In the case of `COCC1(CO)C(=O)C2CCN1CC2` (stereo unspecified) [PRIMA-1MET] + NC(=O)Nc1cc(-c2cccc(F)c2)sc1C(=O)N[C@H]1CCCNC1 [AZD7762] (partner 0.2 µM), the relative viability was found to be 0.206.
On the same count and under the same terms, the value for `COCC1(CO)C(=O)C2CCN1CC2` (stereo unspecified) [PRIMA-1MET] + Nc1nc2[nH]cc(CCc3ccc(C(=O)N[C@@H](CCC(=O)O)C(=O)O)cc3)c2c(=O)[nH]1 [Pemetrexed] (partner 0.2 µM) was 0.221; that for `COCC1(CO)C(=O)C2CCN1CC2` (stereo unspecified) [PRIMA-1MET] + CC(=O)Nc1cccc(-n2c(=O)n(C3CC3)c(=O)c3c(Nc4ccc(I)cc4F)n(C)c(=O)c(C)c32)c1 [Trametinib] (partner 0.02 µM) was 0.443; that for `COCC1(CO)C(=O)C2CCN1CC2` (stereo unspecified) [PRIMA-1MET] + Nc1ncn([C@H]2C[C@H](O)[C@@H](CO)O2)c(=O)n1 [Decitabine] (partner 2 µM) was 0.343.

The experiment is the same for the next values; noted with them: first compound 0.6325 µM.
Molecule `COCC1(CO)C(=O)C2CCN1CC2` (stereo unspecified) [PRIMA-1MET] + COc1cc2c(Oc3ccc(NC(=O)C4(C(=O)Nc5ccc(F)cc5)CC4)cc3F)ccnc2cc1OCCCN1CCOCC1 [Foretinib] (partner 0.25 µM) registered a relative viability of 0.976.
For `COCC1(CO)C(=O)C2CCN1CC2` (stereo unspecified) [PRIMA-1MET] + NC(=O)Nc1cc(-c2cccc(F)c2)sc1C(=O)N[C@H]1CCCNC1 [AZD7762] (partner 0.2 µM), the relative viability came out at 0.224.
`COCC1(CO)C(=O)C2CCN1CC2` (stereo unspecified) [PRIMA-1MET] + Nc1nc2[nH]cc(CCc3ccc(C(=O)N[C@@H](CCC(=O)O)C(=O)O)cc3)c2c(=O)[nH]1 [Pemetrexed] (partner 0.2 µM): the relative viability amounted to 0.144.
Turning to `COCC1(CO)C(=O)C2CCN1CC2` (stereo unspecified) [PRIMA-1MET] + CC(=O)Nc1cccc(-n2c(=O)n(C3CC3)c(=O)c3c(Nc4ccc(I)cc4F)n(C)c(=O)c(C)c32)c1 [Trametinib] (partner 0.02 µM), the relative viability worked out at 0.523.
Same read-out and setting: as for `COCC1(CO)C(=O)C2CCN1CC2` (stereo unspecified) [PRIMA-1MET] + Nc1ncn([C@H]2C[C@H](O)[C@@H](CO)O2)c(=O)n1 [Decitabine] (partner 2 µM), the figure is 0.157.

The same experiment, now with this note: first compound 2 µM.
Turning to `COCC1(CO)C(=O)C2CCN1CC2` (stereo unspecified) [PRIMA-1MET] + COc1cc2c(Oc3ccc(NC(=O)C4(C(=O)Nc5ccc(F)cc5)CC4)cc3F)ccnc2cc1OCCCN1CCOCC1 [Foretinib] (partner 0.25 µM), the relative viability was 0.749.
Still for that read-out and setting: the value for `COCC1(CO)C(=O)C2CCN1CC2` (stereo unspecified) [PRIMA-1MET] + NC(=O)Nc1cc(-c2cccc(F)c2)sc1C(=O)N[C@H]1CCCNC1 [AZD7762] (partner 0.2 µM) was 0.181; that for `COCC1(CO)C(=O)C2CCN1CC2` (stereo unspecified) [PRIMA-1MET] + Nc1nc2[nH]cc(CCc3ccc(C(=O)N[C@@H](CCC(=O)O)C(=O)O)cc3)c2c(=O)[nH]1 [Pemetrexed] (partner 0.2 µM) was 0.239; that for `COCC1(CO)C(=O)C2CCN1CC2` (stereo unspecified) [PRIMA-1MET] + CC(=O)Nc1cccc(-n2c(=O)n(C3CC3)c(=O)c3c(Nc4ccc(I)cc4F)n(C)c(=O)c(C)c32)c1 [Trametinib] (partner 0.02 µM) was 0.474.
Same read-out and setting: as for `COCC1(CO)C(=O)C2CCN1CC2` (stereo unspecified) [PRIMA-1MET] + Nc1ncn([C@H]2C[C@H](O)[C@@H](CO)O2)c(=O)n1 [Decitabine] (partner 2 µM), the figure is 0.302.

The same experiment, now with this note: first compound 6.325 µM.
For the molecule `COCC1(CO)C(=O)C2CCN1CC2` (stereo unspecified) [PRIMA-1MET] + COc1cc2c(Oc3ccc(NC(=O)C4(C(=O)Nc5ccc(F)cc5)CC4)cc3F)ccnc2cc1OCCCN1CCOCC1 [Foretinib] (partner 0.25 µM), the relative viability amounted to 1.01.
Same read-out and setting: the value for `COCC1(CO)C(=O)C2CCN1CC2` (stereo unspecified) [PRIMA-1MET] + NC(=O)Nc1cc(-c2cccc(F)c2)sc1C(=O)N[C@H]1CCCNC1 [AZD7762] (partner 0.2 µM) was 0.211; that for `COCC1(CO)C(=O)C2CCN1CC2` (stereo unspecified) [PRIMA-1MET] + Nc1nc2[nH]cc(CCc3ccc(C(=O)N[C@@H](CCC(=O)O)C(=O)O)cc3)c2c(=O)[nH]1 [Pemetrexed] (partner 0.2 µM) was 0.554; that for `COCC1(CO)C(=O)C2CCN1CC2` (stereo unspecified) [PRIMA-1MET] + CC(=O)Nc1cccc(-n2c(=O)n(C3CC3)c(=O)c3c(Nc4ccc(I)cc4F)n(C)c(=O)c(C)c32)c1 [Trametinib] (partner 0.02 µM) was 0.461.
With `COCC1(CO)C(=O)C2CCN1CC2` (stereo unspecified) [PRIMA-1MET] + Nc1ncn([C@H]2C[C@H](O)[C@@H](CO)O2)c(=O)n1 [Decitabine] (partner 2 µM), the relative viability is 0.384.

The experiment is the same for the next values; noted with them: first compound 20 µM.
Take `COCC1(CO)C(=O)C2CCN1CC2` (stereo unspecified) [PRIMA-1MET] + COc1cc2c(Oc3ccc(NC(=O)C4(C(=O)Nc5ccc(F)cc5)CC4)cc3F)ccnc2cc1OCCCN1CCOCC1 [Foretinib] (partner 0.25 µM): the relative viability is 0.929.
As for `COCC1(CO)C(=O)C2CCN1CC2` (stereo unspecified) [PRIMA-1MET] + NC(=O)Nc1cc(-c2cccc(F)c2)sc1C(=O)N[C@H]1CCCNC1 [AZD7762] (partner 0.2 µM), the relative viability came out at 0.239.
